Measured values: article PMC8154258, “Multivalent Presentations of Glycomimetic Inhibitor of the Adhesion of Fungal Pathogen Candida albicans to Human Buccal Epithelial Cells” (Bioconjugate Chemistry, 2021)

Test system: C. albicans biofilm formation
Assay: Biofilm assay (crystal violet, 96-well plate)
Type: cell-based, Candida albicans
Description: C. albicans (MEN, serotype B, clinical isolate from a corneal infection) was maintained on sabouraud dextrose agar, and cultures were grow to the stationary phase ((1–2) × 10^8 cells/mL) overnight in YEPD broth (1% (w/v) yeast extract, 2% (w/v) bacteriological peptone, 2% (w/v) glucose) at 30 °C, and 200 rpm. Stationary phase yeast cells were harvested, washed with PBS, and resuspended at a density of 1 × 10^8 cells/mL in PBS.
C. albicans cells were washed twice with PBS and enumerated before being resuspended in RPMI to give a cell density of (2 × 10^7 cells/mL). Compounds were resuspended in PBS to give a concentration of 2 mg/mL. The compounds (250 μL) were mixed with RPMI (250 μL) in a 1:1 ratio to give a concentration of 1 mg/mL. PBS (250 μL) was mixed with RPMI (250 μL).
C. albicans cells (500 μL, 2 × 10^7 cells/mL) were incubated with compounds (1 mg/mL) in a 1:1 ratio to give a final cell density to concentration ratio of […]. The suspension was incubated for 3 h at rt and mixed by vortex every 20 min to prevent cells from falling out of solution. Cell suspension (100 μL) was added to wells of a 96-well flat bottom plate. The plate was incubated at 37 °C for 24 h. […] The plate was read at 550 nm in a 96-well plate reader. The percentage reduction in biofilm was calculated by dividing the absorbance value of the treated cells into that of the control.

## O=C[C@H](O)[C@@H](O)[C@@H](O)[C@H](O)CO [D-galactose]
Figure 4, relative to PBS control, compound 1 mg/mL mixed 1:1 with cells, 24 h at 37 °C, crystal violet, 550 nm, error: standard deviation
  % Change in biofilm formation: 114%
Biofilm growing conditions, positive control
  effect on biofilm formation (in words): promoted the formation of the biofilm
